Key:
Type in all cases: ADME, organism-based
Settings in all cases: in vivo
[1] = tested on: Rattus norvegicus; experiment: Liver blood flow in rat at 0.5 mg/kg, iv and 5 mg/kg, po
[2] = Bioavailability in rat at 0.5 mg/kg, iv and 5 mg/kg, po
[3] = Cmax in rat at 0.5 mg/kg, iv and 5 mg/kg, po
[4] = Volume of distribution in rat at 0.5 mg/kg, iv and 5 mg/kg, po

CN1CC(c2ccc(NC(=O)c3nc(C#N)c[nH]3)c(C3=CCCCC3)c2)CN(C)S1(=O)=O
LBF [1]: 55 mL/min/kg | bioavailability [2]: 15% | Cmax [3]: 839 ng/mL | Vd [4]: 0.564 L/kg
